This note sets out measurements from paper PMC7143758, “Highly Substituted Phenol Derivatives with Nitric Oxide Inhibitory Activities from the Deep-Sea-Derived Fungus Trichobotrys effuse FS524” (Marine Drugs, 2020).

Data set [1] concerns NO production in LPS-induced RAW 264.7 macrophages. The experiment in a line: Inhibition of nitric oxide (NO) production in LPS-induced macrophages (Griess). To be noted: for IC50: LPS (1 μg/mL) 24 h, RAW 264.7 mouse macrophages, Griess, mean ± SD, triplicate; for inhibitory activities against NO production (in words): LPS-induced RAW 264.7 macrophages. Type of data set: cell-based, mouse. As for the experimental part: (§1) Compounds 1–6 were evaluated for the inhibitory activity of nitric oxide (NO) production in lipopolysaccharide (LPS)-induced RAW 246.7 mouse macrophages. The cells (180 μL) with a density of 5 × 10^5 cells/mL of media on a 96-well plate were put under 37 °C at a 5% CO2 condition. After a 24 h preincubation, the seeded cells were treated with gradient dilutions of 1-6 with a maximum concentration of 100 μM, followed by stimulation with LPS (1 μg/mL) for 24 h. Then 50 μL cell culture supernatant solution was moved to a new plate that contained NO detection Griess A (50 μL) and Griess B (50 μL). Finally, the absorbance was measured at 540 nm. Aminoguanidine was used as a positive control and all data were obtained in triplicate. The viability of RAW264.7 cells was evaluated according to the SRB method simultaneously to exclude the interference of the cytotoxicity of 1–6. The RAW264.7 cells were purchased from the Cell Bank of the Chinese Academy of Sciences.
A general note: The Griess reaction detects nitrite, a stable product of nitric oxide.

Data set [2] can be described thus: Cytotoxicity / viability of macrophages (SRB method). To be noted: mouse, RAW264.7 macrophage cells, RAW264.7 macrophages. It is filed as cell-based, mouse. On the procedure:
as §1
In general terms: Sulforhodamine B stains cellular protein and so reports cell mass.

Another data set relates to RAW264.7 cells. The data set can be described thus: Cytotoxicity / viability of macrophages (SRB method). Type of data set: cell-based, mouse. The following applies: RAW264.7 macrophages. As for the experimental part:
as §1

The compound `CCc1c(O)cc2c(c1O)C(=O)C[C@H](C)O2` [Compound 4b, (−)-Trieffusol D] came in with an IC50 in data set [1] (Mus musculus, RAW264.7, 24 h) of 55.9 ± 1.6 µM. Besides, the IC50 at 24 h in data set [2] was > 200 µM.

For the compound `CCCc1cc2c(c(O)c1CO)COC2=O` [Compound 6, Trieffusol F], in data set [1] (Mus musculus, RAW264.7, 24 h), the IC50 turned out to be 111 ± 4.6 µM. Further, the IC50 at 24 h in data set [2] was > 200 µM.

In data set [1] (Mus musculus, RAW264.7, 24 h), `C/C=C/C(=O)c1c(OC)cc2c(c1O)CCO2` [Compound 5, Trieffusol E] gave an IC50 of 65.5 ± 1.3 µM. Besides, the IC50 at 24 h in data set [2] was > 200 µM.

Take `CCC1(O)C(=O)C=C(OCCc2ccc(O)cc2)CC1O` (stereo not shown) [Compound 3, Trieffusol C]: in data set [1], the IC50 came out at 51.9 ± 1.4 µM and the “inhibitory activities against NO production (in words)” value is listed as “moderate inhibitory activities”. Also, the IC50 in data set [1] (Mus musculus, RAW264.7, 24 h) lay in the range of 51.9 to 55.9 µM. Also, the IC50 at 24 h in data set [2] is > 200 µM.

As for `CCC1(O)C(=O)C2=C(CC1O)OC1=C(C(=O)C(O)(CC)C(O)C1)C2c1ccc(O)cc1` (stereo not shown) [Compound 1, Trieffusol A], the melting point lay within 149 to 150 °C. Also, the IC50 in data set [1] (Mus musculus, RAW264.7, 24 h) is > 200 µM. Also, the IC50 at 24 h in data set [2] was > 200 µM.

Consider `CCC1(O)C(=O)C2=C(CC1O)OC1=C(C(=O)C(O)(CC)C(O)C1)C2c1ccc(O)cc1` (stereo not shown) [Compound 2, Trieffusol B], for which the IC50 in data set [1] is 108 ± 3 µM; with RAW264.7 cells, > 200 µM.

Turning to `CCc1c(O)cc2c(c1O)C(=O)C[C@@H](C)O2` [Compound 4a, (+)-Trieffusol D], in data set [1] (Mus musculus, RAW264.7, 24 h), the IC50 is 54.3 ± 2.2 µM. Besides, the IC50 at 24 h in data set [2] was > 200 µM.

Turning to `N=C(N)NN` [Aminoguanidine, reference compound], the figures for the IC50 (in data set [1]; with RAW264.7 cells) were 24.8 ± 0.8 µM and > 200 µM, respectively.

In the case of `CCc1c(O)cc2c(c1O)C(=O)CC(C)O2` (stereo not shown) [Compound 4, Trieffusol D], the “inhibitory activities against NO production (in words)” value in data set [1] is recorded as “moderate inhibitory activities”. Moreover, in data set [1] (Mus musculus, RAW264.7, 24 h), the IC50 fell in the range of 51.9 to 55.9 µM. Besides, the IC50 at 24 h in data set [2] was > 200 µM.

The term IC50 denotes the concentration that inhibits the measured activity by half. A high value points to lower potency. For orientation: melting point means the temperature of the solid-liquid transition.
